Results reported in the supplement of paper PMC4862054.

What was measured:
Hs578T [1] = test: drug sensitivity score (DSS), CellTox Green (DSS (AUC-based score)); higher = stronger drug effect (viability inhibition or cytotoxicity); extreme values may be limits of the assay; details: incubation time: 72 h
Summary of the method: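 After 72 h of incubation in 384-well plates with compound at 5 concentrations (10-fold steps, 10,000-fold range set per compound), breast cancer cell lines seeded in 20 µl suspension were read first for CellTox Green fluorescence at 485/520 nm. CellTiter-Glo luminescence was measured next, after 10 min at room temperature. Normalisation on each plate used 0.1 % DMSO and a positive kill control, and the drug sensitivity score was computed from the area under the fitted dose-response curve.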

BT-474 [2] = test: normalised viability (% of control), CellTiter-Blue; higher = more viable cells (about 100 = DMSO control); details: 100 nM; incubation time: 72 h
Procedure: (§1)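 DSRT, CellTiter-Blue viability, 72 h incubation. Signal is normalised to DMSO and benzethonium chloride controls. Value is the normalised response at dose 3.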

DU-4475 [3] = test: as above; details: 10 nM; incubation time: 72 h
Procedure: as §1

HCC1599 [4] = test: as above; details: 100 nM; incubation time: 72 h
Procedure: as §1

MDA-MB-453 [5] = test: as above; details: 10 nM; incubation time: 72 h
Procedure: as §1

MFM-223 [6] = test: as above; details: 100 nM; incubation time: 72 h
Procedure: as §1

SK-BR-3 [7] = test: as above; details: 100 nM; incubation time: 72 h
Procedure: as §1

BT-474 [8] = test: normalised viability (% of control), CellTiter-Blue; higher = more viable cells (about 100 = DMSO control); details: incubation time: 72 h
Summary of the method: (§2)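 After 72 h on compound-loaded 384-well plates, breast cancer cell lines received 2.5 µl CellTiter-Blue reagent for 2 h at 37 °C. Fluorescence at 560/590 nm was scaled per plate so that vehicle was 100 and a positive kill control was 0. The value stands for normalised viability at a single listed concentration of the series.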

BT-549 = test: as above; details: incubation time: 72 h
Summary of the method: as §2

CAL-120 = test: as above; details: incubation time: 72 h
Summary of the method: as §2

CAL-148 = test: as above; details: incubation time: 72 h
Summary of the method: as §2

CAL-51 = test: as above; details: incubation time: 72 h
Summary of the method: as §2

CAL-85-1 = test: as above; details: incubation time: 72 h
Summary of the method: as §2

DU-4475 [9] = test: as above; details: incubation time: 72 h
Summary of the method: as §2

HCC1143 = test: as above; details: incubation time: 72 h
Summary of the method: as §2

HCC1599 [10] = test: as above; details: incubation time: 72 h
Summary of the method: as §2

HCC1937 = test: as above; details: incubation time: 72 h
Summary of the method: as §2

HDQ-P1 = test: as above; details: incubation time: 72 h
Summary of the method: as §2

Hs578T [11] = test: as above; details: incubation time: 72 h
Summary of the method: as §2

MDA-MB-231 = test: as above; details: incubation time: 72 h
Summary of the method: as §2

MDA-MB-436 = test: as above; details: incubation time: 72 h
Summary of the method: as §2

MDA-MB-453 [12] = test: as above; details: incubation time: 72 h
Summary of the method: as §2

MDA-MB-468 = test: as above; details: incubation time: 72 h
Summary of the method: as §2

MFM-223 [13] = test: as above; details: incubation time: 72 h
Summary of the method: as §2

SK-BR-3 [14] = test: as above; details: incubation time: 72 h
Summary of the method: as §2

For CC(=O)O[C@]1(C(C)=O)CC[C@H]2[C@@H]3C=C(C)C4=CC(=O)CC[C@]4(C)[C@H]3CC[C@@]21C [Megestrol acetate], the drug sensitivity score (Hs578T [1]) was 1.68.
COc1cc(Nc2ncc3c(n2)-c2ccc(Cl)cc2C(c2c(F)cccc2OC)=NC3)ccc1C(=O)O [Alisertib] gave a drug sensitivity score (Hs578T [1]) of 0.
With CCN1CCN(c2ccc(Nc3cc(N(C)C(=O)Nc4c(Cl)c(OC)cc(OC)c4Cl)ncn3)cc2)CC1 [NVP-BGJ398] the drug sensitivity score (Hs578T [1]) was 0.
COc1cc(Nc2ncc3c(n2)-c2ccc(Cl)cc2C(c2c(F)cccc2OC)=NC3)ccc1C(=O)O [MLN8237] was tested, and the normalised viability (BT-474 [2]) was 72.6%, the normalised viability (DU-4475 [3]) was 102% and the normalised viability (HCC1599 [4]) was 97.7%. For the same molecule, the normalised viability (MDA-MB-453 [5]) was 84.3%, the normalised viability (MFM-223 [6]) was 77.7% and the normalised viability (SK-BR-3 [7]) was 53%. The normalised viability (BT-474 [8]; 10 nM) was 103%, the normalised viability (BT-474 [8]; 1000 nM) was 82.9% and the normalised viability (BT-474 [8]; 10000 nM) was 58.5%. It also gave a normalised viability (BT-549; 10 nM) of 103%, a normalised viability (BT-549; 1000 nM) of 62.6% and a normalised viability (BT-549; 10000 nM) of 32.6%. It also gave a normalised viability (CAL-120; 10 nM) of 104%, a normalised viability (CAL-120; 1000 nM) of 59.8% and a normalised viability (CAL-120; 10000 nM) of 33.6%. The normalised viability (CAL-148; 3 nM) was 86.7%, the normalised viability (CAL-148; 30 nM) was 89.9% and the normalised viability (CAL-148; 100 nM) was 78.1%. For the same molecule, the normalised viability (CAL-51; 3 nM) was 102%, the normalised viability (CAL-51; 30 nM) was 91.8% and the normalised viability (CAL-51; 100 nM) was 64.3%. The normalised viability (CAL-85-1; 3 nM) was 89%, the normalised viability (CAL-85-1; 30 nM) was 80.6% and the normalised viability (CAL-85-1; 100 nM) was 69.4%. For the same molecule, the normalised viability (DU-4475 [9]; 3 nM) was 98.3%, the normalised viability (DU-4475 [9]; 30 nM) was 82.6% and the normalised viability (DU-4475 [9]; 100 nM) was 37.5%. For the same molecule, the normalised viability (HCC1143; 10 nM) was 112%, the normalised viability (HCC1143; 1000 nM) was 70.7% and the normalised viability (HCC1143; 10000 nM) was 51.1%. For the same molecule, the normalised viability (HCC1599 [10]; 10 nM) was 103%, the normalised viability (HCC1599 [10]; 1000 nM) was 87.7% and the normalised viability (HCC1599 [10]; 10000 nM) was 66.9%. For the same molecule, the normalised viability (HCC1937; 10 nM) was 68%, the normalised viability (HCC1937; 1000 nM) was 40% and the normalised viability (HCC1937; 10000 nM) was 42.2%. It also gave a normalised viability (HDQ-P1; 3 nM) of 102%, a normalised viability (HDQ-P1; 30 nM) of 82.2% and a normalised viability (HDQ-P1; 100 nM) of 64%. It also gave a normalised viability (Hs578T [11]; 10 nM) of 113%, a normalised viability (Hs578T [11]; 1000 nM) of 59.2% and a normalised viability (Hs578T [11]; 10000 nM) of 45.6%. The normalised viability (MDA-MB-231; 10 nM) was 101%, the normalised viability (MDA-MB-231; 1000 nM) was 58% and the normalised viability (MDA-MB-231; 10000 nM) was 33.3%. It also gave a normalised viability (MDA-MB-436; 10 nM) of 133%, a normalised viability (MDA-MB-436; 1000 nM) of 54.7% and a normalised viability (MDA-MB-436; 10000 nM) of 70.8%. For the same molecule, the normalised viability (MDA-MB-453 [12]; 3 nM) was 91.8%, the normalised viability (MDA-MB-453 [12]; 30 nM) was 50.2% and the normalised viability (MDA-MB-453 [12]; 100 nM) was 44.3%. It also gave a normalised viability (MDA-MB-468; 10 nM) of 96.7%, a normalised viability (MDA-MB-468; 1000 nM) of 42.6% and a normalised viability (MDA-MB-468; 10000 nM) of 35.2%. For the same molecule, the normalised viability (MFM-223 [13]; 10 nM) was 79.3%, the normalised viability (MFM-223 [13]; 1000 nM) was 50.7% and the normalised viability (MFM-223 [13]; 10000 nM) was 30.8%. The normalised viability (SK-BR-3 [14]; 10 nM) was 87.3%, the normalised viability (SK-BR-3 [14]; 1000 nM) was 59.5% and the normalised viability (SK-BR-3 [14]; 10000 nM) was 46.8%.
